Experimental data taken from PubChem BioAssay AID1259407 (Chemical Carcinogenesis Research Information System (CCRIS), 2018).
Activity calls are given as the source filed them. How the calls were made is not given here.

System: CCRIS mutagenicity, Ames/micronucleus/aberration tests
Experiment: CCRIS mutagenicity studies
[1] = Test System: AMES SALMONELLA TYPHIMURIUM, Strain/Indicator: TA97, Metabolic Activation: NONE, Method: STANDARD PLATE
[2] = Test System: AMES SALMONELLA TYPHIMURIUM, Strain/Indicator: TA98, Metabolic Activation: NONE, Method: STANDARD PLATE
[3] = Test System: AMES SALMONELLA TYPHIMURIUM, Strain/Indicator: TA98, Metabolic Activation: RAT, LIVER, S-9, AROCLOR 1254, Method: STANDARD PLATE
[4] = Test System: AMES SALMONELLA TYPHIMURIUM, Strain/Indicator: TA100, Metabolic Activation: NONE, Method: STANDARD PLATE
[5] = Test System: AMES SALMONELLA TYPHIMURIUM, Strain/Indicator: TA100, Metabolic Activation: RAT, LIVER, S-9, AROCLOR 1254, Method: STANDARD PLATE
[6] = Test System: AMES SALMONELLA TYPHIMURIUM, Strain/Indicator: TA98, Metabolic Activation: NONE, Method: PREINCUBATION
[7] = Test System: AMES SALMONELLA TYPHIMURIUM, Strain/Indicator: TA1537, Metabolic Activation: RAT, LIVER, S-9, AROCLOR 1254, Method: STANDARD PLATE

Structure (SMILES): COc1ccc2c(OC)c3ccoc3nc2c1
- mutagenic call (Test System: AMES SALMONELLA TYPHIMURIUM, Strain/Indicator: TA98, Metabolic Activation: RAT, LIVER, S-9, PHENOBARBITAL, Method: STANDARD PLATE): active; positive
- mutagenic call (Test System: AMES SALMONELLA TYPHIMURIUM, Strain/Indicator: TA100, Metabolic Activation: RAT, LIVER, S-9, PHENOBARBITAL, Method: STANDARD PLATE): active; positive

Structure (SMILES): Cc1ccc2cc3ccc4ccccc4c3cc2c1
- mutagenic call (Test System: AMES SALMONELLA TYPHIMURIUM, Strain/Indicator: TA100, Metabolic Activation: RAT, INTACT HEPATOCYTES, AROCLOR 1254, Method: PREINCUBATION): active; positive
- mutagenic call (Test System: AMES SALMONELLA TYPHIMURIUM, Strain/Indicator: TA100, Metabolic Activation: RAT, NADPH-FORTIFIED HOMOGENIZED HEPATOCYTES, AROCLOR 1254, Method: PREINCUBATION): active; positive
- mutagenic call (Test System: AMES SALMONELLA TYPHIMURIUM, Strain/Indicator: TA100, Metabolic Activation: RAT, SONICATED HEPATOCYTES, AROCLOR 1254, Method: PREINCUBATION): active; positive

Structure (SMILES): Cc1cc2c(O)cccc2c2cc3c(cc12)C=C[C@H](O)[C@H]3O
- mutagenic call (Test System: AMES SALMONELLA TYPHIMURIUM, Strain/Indicator: TA100, Metabolic Activation: RAT, LIVER, S-9, AROCLOR 1254, Method: PREINCUBATION): active; positive

Structure (SMILES): ClC(Cl)(Cl)Br
- mutagenic call [1]: active; positive
- mutagenic call (Test System: AMES SALMONELLA TYPHIMURIUM, Strain/Indicator: TA97, Metabolic Activation: RAT, LIVER, S-9, AROCLOR 1254, Method: STANDARD PLATE): active; positive
- mutagenic call [2]: active; positive
- mutagenic call [3]: inactive; negative
- mutagenic call [4]: inactive; negative
- mutagenic call [5]: inactive; negative
- mutagenic call (Test System: AMES SALMONELLA TYPHIMURIUM, Strain/Indicator: TA104, Metabolic Activation: NONE, Method: STANDARD PLATE): active; positive
- mutagenic call (Test System: AMES SALMONELLA TYPHIMURIUM, Strain/Indicator: TA104, Metabolic Activation: RAT, LIVER, S-9, AROCLOR 1254, Method: STANDARD PLATE): active; positive

Structure (SMILES): CCc1cccc(CC)c1NC(C)=O
- mutagenic call [6]: inactive; negative
- mutagenic call (Test System: AMES SALMONELLA TYPHIMURIUM, Strain/Indicator: TA98, Metabolic Activation: RAT, LIVER, MICROSOMES, PHENOBARBITAL, Method: PREINCUBATION): inactive; negative

Structure (SMILES): c1cc2cccc3c4cccc5cccc(c(c1)c23)c54
- mutagenic call [1]: inactive; negative
- mutagenic call (Test System: AMES SALMONELLA TYPHIMURIUM, Strain/Indicator: TA97, Metabolic Activation: RAT, LIVER, S-9, PCB, Method: STANDARD PLATE): active; positive
- mutagenic call (Test System: AMES SALMONELLA TYPHIMURIUM, Strain/Indicator: TA97A, Metabolic Activation: RAT, LIVER, S-9, AROCLOR 1254, Method: STANDARD PLATE): active; positive
- mutagenic call [2]: inactive; negative
- mutagenic call (Test System: AMES SALMONELLA TYPHIMURIUM, Strain/Indicator: TA98, Metabolic Activation: RAT, LIVER, S-9, AROCLOR 1254 (20 OR 50 µL S-9), Method: STANDARD PLATE): active; positive
- mutagenic call (Test System: AMES SALMONELLA TYPHIMURIUM, Strain/Indicator: TA98, Metabolic Activation: RAT, LIVER, S-9, PCB, Method: STANDARD PLATE): active; positive
- mutagenic call [4]: inactive; negative
- mutagenic call (Test System: AMES SALMONELLA TYPHIMURIUM, Strain/Indicator: TA100, Metabolic Activation: RAT, LIVER, S-9, AROCLOR 1254 (50 µL S-9), Method: STANDARD PLATE): active; positive
- mutagenic call [5]: active; positive
- mutagenic call (Test System: AMES SALMONELLA TYPHIMURIUM, Strain/Indicator: TA100, Metabolic Activation: RAT, LIVER, S-9, PCB, Method: STANDARD PLATE): active; positive
- mutagenic call (Test System: AMES SALMONELLA TYPHIMURIUM, Strain/Indicator: TA1535, Metabolic Activation: RAT, LIVER, S-9, AROCLOR 1254, Method: STANDARD PLATE): active; positive
- mutagenic call [7]: active; positive

Structure (SMILES): [N-]=[N+]=NC[C@H]1O[C@H](O)[C@H](O)[C@@H](O)[C@H]1O
- mutagenic call [2]: inactive; negative
- mutagenic call [4]: active; positive

Structure (SMILES): O=C(O[C@@H]1Cc2c(O)cc(O)cc2O[C@H]1c1ccc(O)c(O)c1)c1cc(O)c(O)c(O)c1
- mutagenic call (Test System: Ames Salmonella typhimurium, Strain/Indicator: TA102, Metabolic Activation: None, Method: Preincubation): inactive; negative
- mutagenic call (Test System: Ames Salmonella typhimurium, Strain/Indicator: TA102, Metabolic Activation: Rat, Liver, S-9, Aroclor 1254 in 0.154 M KCl, Method: Preincubation): inactive; negative

Structure (SMILES): O=S(=O)(O)Oc1c2ccccc2c2ccc3cccc4ccc1c2c43
- mutagenic call [6]: inactive; negative
- mutagenic call (Test System: AMES SALMONELLA TYPHIMURIUM, Strain/Indicator: TA98, Metabolic Activation: RAT, LUNG, S-9, Method: PREINCUBATION): inactive; negative

Structure (SMILES): C=CC(C)(C)c1cc2cc3c(cc2oc1=O)OC(C(C)(C)O)C3 (centres undefined)
- mutagenic call (Test System: AMES SALMONELLA TYPHIMURIUM, Strain/Indicator: TA92, Metabolic Activation: NONE, Method: SPOT TEST): inactive; negative
- mutagenic call (Test System: AMES SALMONELLA TYPHIMURIUM, Strain/Indicator: TA92, Metabolic Activation: RAT, LIVER, S-9, AROCLOR 1254, Method: SPOT TEST): inactive; negative
- mutagenic call (Test System: AMES SALMONELLA TYPHIMURIUM, Strain/Indicator: TA94, Metabolic Activation: NONE, Method: SPOT TEST): inactive; negative
- mutagenic call (Test System: AMES SALMONELLA TYPHIMURIUM, Strain/Indicator: TA94, Metabolic Activation: RAT, LIVER, S-9, AROCLOR 1254, Method: SPOT TEST): inactive; negative
- mutagenic call (Test System: AMES SALMONELLA TYPHIMURIUM, Strain/Indicator: TA97, Metabolic Activation: NONE, Method: SPOT TEST): active; positive
- mutagenic call (Test System: AMES SALMONELLA TYPHIMURIUM, Strain/Indicator: TA97, Metabolic Activation: RAT, LIVER, S-9, AROCLOR 1254, Method: SPOT TEST): inactive; negative
- mutagenic call (Test System: AMES SALMONELLA TYPHIMURIUM, Strain/Indicator: TA98, Metabolic Activation: NONE, Method: SPOT TEST): active; positive
- mutagenic call (Test System: AMES SALMONELLA TYPHIMURIUM, Strain/Indicator: TA98, Metabolic Activation: RAT, LIVER, S-9, AROCLOR 1254, Method: SPOT TEST): inactive; negative
- mutagenic call (Test System: AMES SALMONELLA TYPHIMURIUM, Strain/Indicator: TA100, Metabolic Activation: NONE, Method: SPOT TEST): active; positive
- mutagenic call (Test System: AMES SALMONELLA TYPHIMURIUM, Strain/Indicator: TA100, Metabolic Activation: RAT, LIVER, S-9, AROCLOR 1254, Method: SPOT TEST): inactive; negative
- mutagenic call (Test System: AMES SALMONELLA TYPHIMURIUM, Strain/Indicator: TA102, Metabolic Activation: NONE, Method: SPOT TEST): inactive; negative
- mutagenic call (Test System: AMES SALMONELLA TYPHIMURIUM, Strain/Indicator: TA102, Metabolic Activation: RAT, LIVER, S-9, AROCLOR 1254, Method: SPOT TEST): inactive; negative

Structure (SMILES): CN(C)c1ccc2cc3ccc(N(C)C)cc3nc2c1
- mutagenic call [3]: active; positive
- mutagenic call [5]: active; positive
- mutagenic call [7]: active; positive
- mutagenic call (Test System: CHINESE HAMSTER OVARY, Strain/Indicator: CHO-K1-BH4 (HGPRT)/6-THIOGUANINE, Metabolic Activation: S-9, Method: SUSPENSION/PLATE): active; positive
- mutagenic call (Test System: E. COLI, Strain/Indicator: WP2, Metabolic Activation: NONE, Method: PREINCUBATION): inactive; negative
- mutagenic call (Test System: MOUSE LYMPHOMA, Strain/Indicator: L5178Y (TK+/TK-), Metabolic Activation: S-9, Method: SUSPENSION/PLATE): active; positive

Structure (SMILES): O=C(Nc1cccc(F)c1)c1csc([N+](=O)[O-])c1
- mutagenic call [2]: active; positive
- mutagenic call [4]: active; positive
